Test results as given in patent US10618918B2, “Substituted boronic acids as antimicrobials” (priority 2015, dated 2020).

What was measured:
[1] = test system: ec308 SHV-5; assay: Tigemonam potentiation (MPC@4), strain ec308 SHV-5; type: cell-based; conditions: minimum BLI concentration inhibiting growth with tigemonam 4 μg/mL; tested up to 40 μg/mL
[2] = test system: ec302 TEM-10; assay: Tigemonam potentiation (MPC@4), strain ec302 TEM-10; type: cell-based; conditions: minimum BLI concentration inhibiting growth with tigemonam 4 μg/mL; tested up to 40 μg/mL
[3] = test system: ECL1002; assay: Tigemonam potentiation (MPC@4), strain ECL1002; type: cell-based; conditions: minimum BLI concentration inhibiting growth with tigemonam 4 μg/mL; tested up to 40 μg/mL
[4] = test system: EC1010 CMY-6; assay: Tigemonam potentiation (MPC@4), strain EC1010 CMY-6; type: cell-based; conditions: minimum BLI concentration inhibiting growth with tigemonam 4 μg/mL; tested up to 40 μg/mL
[5] = test system: KP1004 KPC-2; assay: Biapenem potentiation (MPC@1), strain KP1004 KPC-2; type: cell-based; conditions: minimum BLI concentration inhibiting growth with biapenem 1 μg/mL; tested up to 40 μg/mL
Experimental: (§1) Biapenem was present in the test medium at 1 μg/mL. […] Table 3 summarizes the BLI potency of biapenem potentiation (MPC@1) for two strains overexpressing class A (KPC) and class D (OXA-48) carbapenemases. Biapenem MIC for each strain is also shown.

[6] = test system: KP1086 OXA-48; assay: Biapenem potentiation (MPC@1), strain KP1086 OXA-48; type: cell-based; conditions: minimum BLI concentration inhibiting growth with biapenem 1 μg/mL; tested up to 40 μg/mL
Experimental: as §1

[7] = test system: AB1053 OXA-72; assay: Meropenem potentiation (MPC@8), strain AB1053 OXA-72; type: cell-based, Acinetobacter baumannii; conditions: minimum BLI concentration inhibiting growth with meropenem 8 μg/mL; tested up to 20 μg/mL
[8] = test system: AB1054 OXA-23; assay: Meropenem potentiation (MPC@8), strain AB1054 OXA-23; type: cell-based, Acinetobacter baumannii; conditions: minimum BLI concentration inhibiting growth with meropenem 8 μg/mL; tested up to 20 μg/mL
[9] = target: T1, purified class A, C and D enzymes (β-lactamases) (Acinetobacter baumannii, UniProt Q9L4P2); assay: biochemical; type: biochemical; conditions: purified OXA-23; nitrocefin (NCF) as reporter substrate
T1 construct: rows headed: Ki (OXA-23, NCF), uM; other: purified OXA-23; nitrocefin (NCF) as reporter substrate
T1 sequence (Q9L4P2 whole entry): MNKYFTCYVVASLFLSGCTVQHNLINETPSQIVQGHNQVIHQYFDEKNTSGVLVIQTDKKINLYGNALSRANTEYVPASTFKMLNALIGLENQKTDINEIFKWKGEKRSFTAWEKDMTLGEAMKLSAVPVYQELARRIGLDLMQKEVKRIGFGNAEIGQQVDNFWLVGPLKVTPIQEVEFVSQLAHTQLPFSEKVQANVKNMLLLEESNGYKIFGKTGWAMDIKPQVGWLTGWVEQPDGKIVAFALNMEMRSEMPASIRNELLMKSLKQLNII

[10] = target: purified class A, C and D enzymes (β-lactamases) (Escherichia coli, UniProt Q9L5C7); assay: biochemical; type: biochemical; conditions: purified CTX-M-14; nitrocefin (NCF) as reporter substrate
Chain of purified class A, C and D enzymes (β-lactamases) (Escherichia coli, UniProt Q9L5C7) (Q9L5C7 entry or part of it): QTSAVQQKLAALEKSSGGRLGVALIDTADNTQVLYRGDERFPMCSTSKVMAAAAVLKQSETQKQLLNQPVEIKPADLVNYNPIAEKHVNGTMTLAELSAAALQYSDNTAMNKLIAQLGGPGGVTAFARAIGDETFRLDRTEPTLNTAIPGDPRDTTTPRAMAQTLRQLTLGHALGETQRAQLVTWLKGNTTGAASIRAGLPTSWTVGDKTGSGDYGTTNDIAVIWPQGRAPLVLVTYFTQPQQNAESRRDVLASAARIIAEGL

[11] = target: purified class A, C and D enzymes (β-lactamases) (Klebsiella pneumoniae, UniProt Q6XEC0); assay: biochemical; type: biochemical; conditions: purified OXA-48; nitrocefin (NCF) as reporter substrate
[12] = target: purified class A, C and D enzymes (β-lactamases) (Klebsiella pneumoniae, UniProt Q9F663); assay: biochemical; type: biochemical; conditions: purified KPC-2; nitrocefin (NCF) as reporter substrate
[13] = target: T2, purified class A, C and D enzymes (β-lactamases) (UniProt P0AD64, L31Q/G234S/E235K, species not given); assay: biochemical; type: biochemical; conditions: purified SHV-12; nitrocefin (NCF) as reporter substrate; read-out: Ki (SHV-12, NCF)
T2 construct: Ki (SHV-12, NCF), uM; other: purified SHV-12; nitrocefin (NCF) as reporter substrate
T2 sequence (P0AD64 1-286 L31Q/G234S/E235K): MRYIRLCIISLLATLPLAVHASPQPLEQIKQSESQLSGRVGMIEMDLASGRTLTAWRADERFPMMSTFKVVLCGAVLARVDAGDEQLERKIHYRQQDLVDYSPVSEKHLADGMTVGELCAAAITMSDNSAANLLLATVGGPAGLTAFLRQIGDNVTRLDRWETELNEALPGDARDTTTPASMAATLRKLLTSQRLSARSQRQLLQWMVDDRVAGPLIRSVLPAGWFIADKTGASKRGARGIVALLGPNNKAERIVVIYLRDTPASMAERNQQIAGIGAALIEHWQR

[14] = target: purified class A, C and D enzymes (β-lactamases) (UniProt P62593, R162S/E237K, species not given); assay: biochemical; type: biochemical; conditions: purified TEM-10; nitrocefin (NCF) as reporter substrate
[15] = test system: ECL1002; assay: Aztreonam potentiation (MPC@4), strain ECL1002; conditions: minimum BLI concentration inhibiting growth with aztreonam 4 μg/mL; tested up to 40 μg/mL
[16] = test system: ec308 SHV-5; assay: Aztreonam potentiation (MPC@4), strain ec308 SHV-5; conditions: minimum BLI concentration inhibiting growth with aztreonam 4 μg/mL; tested up to 40 μg/mL
[17] = test system: ec302 TEM-10; assay: Aztreonam potentiation (MPC@4), strain ec302 TEM-10; conditions: minimum BLI concentration inhibiting growth with aztreonam 4 μg/mL; tested up to 40 μg/mL
[18] = test system: KP1004 KPC-2; assay: Aztreonam potentiation (MPC@4), strain KP1004 KPC-2; conditions: minimum BLI concentration inhibiting growth with aztreonam 4 μg/mL; tested up to 40 μg/mL
[19] = test system: EC1010 CMY-6; assay: Aztreonam potentiation (MPC@4), strain EC1010 CMY-6; conditions: minimum BLI concentration inhibiting growth with aztreonam 4 μg/mL; tested up to 40 μg/mL
[20] = test system: KP1010 SHV-12; assay: Aztreonam potentiation (MPC@4), strain KP1010 SHV-12; conditions: minimum BLI concentration inhibiting growth with aztreonam 4 μg/mL; tested up to 40 μg/mL
[21] = test system: KP1010 SHV-12; assay: Tigemonam potentiation (MPC@4), strain KP1010 SHV-12; conditions: minimum BLI concentration inhibiting growth with tigemonam 4 μg/mL; tested up to 40 μg/mL
[22] = test system: KP1005 CTX-M-14; assay: Aztreonam potentiation (MPC@4), strain KP1005 CTX-M-14; conditions: minimum BLI concentration inhibiting growth with aztreonam 4 μg/mL; tested up to 40 μg/mL
[23] = test system: KP1009 CTX-M-15; assay: Aztreonam potentiation (MPC@4), strain KP1009 CTX-M-15; conditions: minimum BLI concentration inhibiting growth with aztreonam 4 μg/mL; tested up to 40 μg/mL
[24] = test system: KP1005 CTX-M-14; assay: Tigemonam potentiation (MPC@4), strain KP1005 CTX-M-14; conditions: minimum BLI concentration inhibiting growth with tigemonam 4 μg/mL; tested up to 40 μg/mL
[25] = test system: KP1009 CTX-M-15; assay: Tigemonam potentiation (MPC@4), strain KP1009 CTX-M-15; conditions: minimum BLI concentration inhibiting growth with tigemonam 4 μg/mL; tested up to 40 μg/mL

## Disodium; 4,4-dihydroxy-8-(1H-triazol-4-ylmethoxy)-5-oxa-4-boranuidabicyclo[4.4.0]deca-1(6),7,9-triene-7-carboxylate [Compound 24]
[1]
  TIG MPC4 SHV-5 ec308: X (X = MPC@4 ≤ 5 μg/mL)
[2]
  TIG MPC4 TEM-10 ec302: X (X = MPC@4 ≤ 5 μg/mL)
[3]
  TIG MPC4 ECL1002: X (X = MPC@4 ≤ 5 μg/mL)
[4]
  TIG MPC4 CMY-6 EC1010: X (X = MPC@4 ≤ 5 μg/mL)
[5]
  BPM MPC1 KP1004 KPC-2: X (X = MPC@1 ≤ 5 μg/mL)
[6]
  BPM MPC1 OXA-48 KP1086: X (X = MPC@1 ≤ 5 μg/mL)
[7]
  MPM MPC8 AB1053 OXA-72: X (X = MPC@1 ≤ 5 μg/mL)
[8]
  MPM MPC8 AB1054 OXA-23: X (X = MPC@1 ≤ 5 μg/mL)
[9]
  Ki: < 100 nM
[10]
  Ki: < 100 nM
[11]
  Ki: < 100 nM
[12]
  Ki: < 100 nM
[13]
  Ki: < 100 nM
[14]
  Ki: < 100 nM
[15]
  AZT MPC4 ECL1002: X (X = MPC@4 ≤ 5 μg/mL)
[16]
  AZT MPC4 SHV-5 ec308: X (X = MPC@4 ≤ 5 μg/mL)
[17]
  AZT MPC4 TEM-10 ec302: X (X = MPC@4 ≤ 5 μg/mL)
[18]
  AZT MPC4 KPC-2 KP1004: X (X = MPC@4 ≤ 5 μg/mL)
[19]
  AZT MPC4 CMY-6 EC1010: X (X = MPC@4 ≤ 5 μg/mL)
[20]
  AZT MPC4 SHV-12 KP1010: X (X = MPC@4 ≤ 5 μg/mL)
[21]
  TIG MPC4 SHV-12 KP1010: X (X = MPC@4 ≤ 5 μg/mL)
[22]
  AZT MPC4 CTX-M-14 KP1005: X (X = MPC@4 ≤ 5 μg/mL)
[23]
  AZT MPC4 CTX-M-15 KP1009: X (X = MPC@4 ≤ 5 μg/mL)
[24]
  TIG MPC4 CTX-M-14 KP1005: Z (Z = MPC@4 > 20 μg/mL)
[25]
  TIG MPC4 CTX-M-15 KP1009: X (X = MPC@4 ≤ 5 μg/mL)
